According to patent US12391640B2, “Process of making a crystalline EDG-2 receptor antagonist” (HORIZON THERAPEUTICS IRELAND DAC, priority 2022, dated 2025):
Values belong to the compound of their own block, whether it stands above or below them.

Columns and labels:
[1] = Solubility of Compound I in solvents at neutral/acidic pH; assay type: physicochemical
LPA1 receptor [2] = molecular target: T1, LPA1 receptor (Homo sapiens, UniProt Q92633); conditions: patients with dcSSc; cited from earlier work
T1 construct: host or cells: patients (endogenous receptor), clinical study cited from Allanore et al. 2018

LPA1 receptor [3] = molecular target: T2, LPA1 receptor (Mus musculus, UniProt P61793); conditions: mouse model of skin fibrosis; cited from earlier work
T2 construct: from tissue; host or cells: living mouse (skin), endogenous receptor

[4] = Physical stability of solid state forms at 80° C./75% RH, examined by FTIR; assay type: physicochemical; conditions: 1 week, open glass vials
Method: The physical stability of Forms 1, 2, and 3 was investigated at 80° C./75% RH in order to determine if interconversion was observed. The samples were examined by FTIR after stressing 1 week in open glass vials.

[5] = Form conversion when slurried in solvent, determined by FTIR; assay type: physicochemical; conditions: slurried in MEK or 1-pentanol at 60° C. or 70° C.
[6] = Solubility of the polymorphs at pH 7.4 in phosphate buffer; assay type: physicochemical; conditions: pH 7.4 phosphate buffer, 25° C.
Method: The solubility of the different polymorphs was determined at pH 7.4 in phosphate buffer at 25° C. Samples were analyzed as a function of time for each form to determine the equilibrium values. The residual solids from each sample were analyzed to verify that the form was unchanged during the experiment. The concentration (mg/mL) versus time data is listed below for each form: […]

T2 sequence (P61793 whole entry): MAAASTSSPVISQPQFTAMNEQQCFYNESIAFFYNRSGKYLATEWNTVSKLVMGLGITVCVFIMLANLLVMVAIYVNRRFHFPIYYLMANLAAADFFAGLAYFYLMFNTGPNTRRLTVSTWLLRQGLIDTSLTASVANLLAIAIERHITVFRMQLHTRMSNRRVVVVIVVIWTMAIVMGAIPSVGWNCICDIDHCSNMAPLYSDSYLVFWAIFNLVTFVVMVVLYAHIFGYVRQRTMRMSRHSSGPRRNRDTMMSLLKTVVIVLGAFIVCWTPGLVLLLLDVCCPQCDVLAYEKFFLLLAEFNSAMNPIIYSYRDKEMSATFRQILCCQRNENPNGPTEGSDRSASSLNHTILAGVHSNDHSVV
T1 sequence (Q92633 whole entry): as the sequence (P61793 whole entry) above, with A4I, S8I, Q22P, Y40H, V61I, D193E, H194N, V269I, N331S, N335T counted along it

- solubility in most solvents [1]: highly insoluble
SMILES: COc1ccc(C(=O)NC2(C(=O)O)Cc3ccccc3C2)cc1OCCc1cccc(C)c1 [Compound I, 2-(4-methoxy-3-(3-methylphenethoxy)benzamido)-2,3-dihydro-1H-indene-2-carboxylic acid]
- outcome measures (LPA1 receptor [2]): improved outcome measures
- target engagement (LPA1 receptor [2]): demonstrated target engagement
- tolerability (LPA1 receptor [2]): well tolerated
- collagen content (LPA1 receptor [3]): reduced collagen content
- dermal thickening (LPA1 receptor [3]): reversed dermal thickening
- myofibroblast differentiation (LPA1 receptor [3]): significantly inhibited myofibroblast differentiation

- changes in FTIR spectrum after stressing (physical stability) [4]: unchanged FTIR
- form conversion in slurry [5]: converts to crystalline Form 2
SMILES: COc1ccc(C(=O)NC2(C(=O)O)Cc3ccccc3C2)cc1OCCc1cccc(C)c1 [Form 1, 2-(4-methoxy-3-(3-methylphenethoxy)benzamido)-2,3-dihydro-1H-indene-2-carboxylic acid]

- 24 hour solubility result greater than Form 1 ([6]; 24 hour): more than 30%
SMILES: COc1ccc(C(=O)NC2(C(=O)O)Cc3ccccc3C2)cc1OCCc1cccc(C)c1 [Form 2, 2-(4-methoxy-3-(3-methylphenethoxy)benzamido)-2,3-dihydro-1H-indene-2-carboxylic acid]

- equilibrium solubility at 24 hours relative to Form 1 [6]: more than double
SMILES: COc1ccc(C(=O)NC2(C(=O)O)Cc3ccccc3C2)cc1OCCc1cccc(C)c1 [Form 3, 2-(4-methoxy-3-(3-methylphenethoxy)benzamido)-2,3-dihydro-1H-indene-2-carboxylic acid]

- equilibrium solubility at 24 hours relative to Form 1 [6]: more than double
SMILES: COc1ccc(C(=O)NC2(C(=O)O)Cc3ccccc3C2)cc1OCCc1cccc(C)c1 [Form 4, 2-(4-methoxy-3-(3-methylphenethoxy)benzamido)-2,3-dihydro-1H-indene-2-carboxylic acid]
